Source: US20020026053A1, “Novel 3-(substituted) -2- indolinones compounds and use thereof as inhibitors of protein kinase activity” (priority 1997, published 2002)

Target: T1, Met receptor (EGFR/Met chimeric cells, EMR) (Homo sapiens, UniProt P08581)
T1 construct: expressed in transfected cells; the other entry of the earlier key: EGFR (P00533, Epidermal growth factor receptor)
Assay: Met Autophosphorylation Assay
Type: biochemical
Summary of the method: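 Met phosphorylation was measured by capture ELISA. Lysates (90 μg/100 μl, HNTG plus 1 mM PMSF) from transiently transfected EGFR/Met chimera (EMR) cells were bound for 60 min at room temperature to wells holding rabbit anti-Met (C-28) on goat anti-rabbit coat. Phosphotyrosine was the read-out.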

T1 sequence (P08581 with tags, fused parts or gaps): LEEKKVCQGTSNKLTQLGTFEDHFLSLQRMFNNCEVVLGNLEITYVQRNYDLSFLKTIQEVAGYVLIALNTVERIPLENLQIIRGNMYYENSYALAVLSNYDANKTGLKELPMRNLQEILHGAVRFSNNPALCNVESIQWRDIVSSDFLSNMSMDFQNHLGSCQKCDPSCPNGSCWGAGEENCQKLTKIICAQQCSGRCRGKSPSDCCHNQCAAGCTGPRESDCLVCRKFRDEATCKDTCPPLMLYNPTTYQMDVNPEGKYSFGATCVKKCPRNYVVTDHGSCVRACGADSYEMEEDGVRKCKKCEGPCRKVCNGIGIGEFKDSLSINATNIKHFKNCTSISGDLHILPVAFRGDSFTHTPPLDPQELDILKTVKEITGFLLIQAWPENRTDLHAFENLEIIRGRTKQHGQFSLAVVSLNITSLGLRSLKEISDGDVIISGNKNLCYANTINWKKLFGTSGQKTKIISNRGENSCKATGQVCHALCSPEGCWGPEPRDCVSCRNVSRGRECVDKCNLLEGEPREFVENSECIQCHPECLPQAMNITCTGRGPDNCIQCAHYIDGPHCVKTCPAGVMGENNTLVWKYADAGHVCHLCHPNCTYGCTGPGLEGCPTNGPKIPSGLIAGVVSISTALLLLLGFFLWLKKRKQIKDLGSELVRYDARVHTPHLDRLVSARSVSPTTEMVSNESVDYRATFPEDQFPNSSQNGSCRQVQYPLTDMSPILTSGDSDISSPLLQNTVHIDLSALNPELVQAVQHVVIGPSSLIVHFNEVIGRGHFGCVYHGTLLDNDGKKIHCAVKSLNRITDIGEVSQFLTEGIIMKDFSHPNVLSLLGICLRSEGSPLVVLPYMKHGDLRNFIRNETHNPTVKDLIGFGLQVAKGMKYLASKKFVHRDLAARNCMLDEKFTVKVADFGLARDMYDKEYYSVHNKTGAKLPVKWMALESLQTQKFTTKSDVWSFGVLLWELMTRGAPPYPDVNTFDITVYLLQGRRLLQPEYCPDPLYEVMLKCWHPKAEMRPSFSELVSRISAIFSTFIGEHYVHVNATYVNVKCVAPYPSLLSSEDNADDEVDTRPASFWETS

Row | Structure (SMILES) | Met Kinase % Inhibition (P.130) [%]
1 | O=C1Nc2ccc(S(=O)(=O)Nc3ccc(C(F)(F)F)cc3)cc2C1=Cc1cccc(F)c1O [10734/E08] | 89.1
2 | O=C1Nc2ccc(S(=O)(=O)Nc3ccc(C(F)(F)F)cc3)cc2C1=Cc1ccc(O)c(Br)c1 [10734/E09] | 96.2
3 | CC(C)(C)c1ccc(C=C2C(=O)Nc3ccc(S(=O)(=O)Nc4ccc(C(F)(F)F)cc4)cc32)cc1 [10734/E10] | 27.9
4 | O=C1Nc2ccc(S(=O)(=O)Nc3ccc(C(F)(F)F)cc3)cc2C1=Cc1ccc(Br)s1 [10734/E11] | 67.1
5 | CCOc1cccc(C=C2C(=O)Nc3ccc(S(=O)(=O)N4CCOCC4)cc32)c1O [10734/F02] | 55.0
6 | O=C1Nc2ccc(S(=O)(=O)N3CCOCC3)cc2C1=Cc1cc(Cl)cc(Cl)c1O [10734/F03] | 86.8
7 | O=C1Nc2ccc(S(=O)(=O)N3CCOCC3)cc2C1=Cc1cc(Cl)ccc1O [10734/F04] | 76.5
8 | CCN(CC)c1ccc(C=C2C(=O)Nc3ccc(S(=O)(=O)N4CCOCC4)cc32)c(O)c1 [10734/F05] | 73.8
9 | O=C1Nc2ccc(S(=O)(=O)N3CCOCC3)cc2C1=Cc1ccc([N+](=O)[O-])cc1 [10734/F06] | 64.2
10 | O=C1Nc2ccc(S(=O)(=O)N3CCOCC3)cc2C1=Cc1cc(Br)cc(Br)c1O [10734/F07] | 95.7
11 | O=C1Nc2ccc(S(=O)(=O)N3CCOCC3)cc2C1=Cc1cccc(F)c1O [10734/F08] | 66.3
12 | O=C1Nc2ccc(S(=O)(=O)N3CCOCC3)cc2C1=Cc1ccc(O)c(Br)c1 [10734/F09] | 93.9
13 | CC(C)(C)c1ccc(C=C2C(=O)Nc3ccc(S(=O)(=O)N4CCOCC4)cc32)cc1 [10734/F10] | 44.8
14 | O=C1Nc2ccc(S(=O)(=O)N3CCOCC3)cc2C1=Cc1ccc(Br)s1 [10734/F11] | 47.3
15 | CCOc1cccc(C=C2C(=O)Nc3ccc(CCCl)cc32)c1O [10734/G02] | 63.6
16 | O=C1Nc2ccc(CCCl)cc2C1=Cc1cc(Cl)cc(Cl)c1O [10734/G03] | 93.4
17 | O=C1Nc2ccc(CCCl)cc2C1=Cc1cc(Cl)ccc1O [10734/G04] | 72.1
18 | CCN(CC)c1ccc(C=C2C(=O)Nc3ccc(CCCl)cc32)c(O)c1 [10734/G05] | 57.7
19 | O=C1Nc2ccc(CCCl)cc2C1=Cc1ccc([N+](=O)[O-])cc1 [10734/G06] | 43.1
20 | O=C1Nc2ccc(CCCl)cc2C1=Cc1cc(Br)cc(Br)c1O [10734/G07] | 96.6
21 | O=C1Nc2ccc(CCCl)cc2C1=Cc1cccc(F)c1O [10734/G08] | 82.2
22 | O=C1Nc2ccc(CCCl)cc2C1=Cc1ccc(O)c(Br)c1 [10734/G09] | 84.7
23 | CC(C)(C)c1ccc(C=C2C(=O)Nc3ccc(CCCl)cc32)cc1 [10734/G10] | 19.3
24 | O=C1Nc2ccc(CCCl)cc2C1=Cc1ccc(Br)s1 [10734/G11] | 20.2
25 | CCOc1cccc(C=C2C(=O)Nc3c(Br)cc(Br)c(C)c32)c1O [10734/H02] | 48.3
26 | Cc1c(Br)cc(Br)c2c1C(=Cc1cc(Cl)cc(Cl)c1O)C(=O)N2 [10734/H03] | 90.3
27 | Cc1c(Br)cc(Br)c2c1C(=Cc1cc(Cl)ccc1O)C(=O)N2 [10734/H04] | 64.2
